Source: PubChem BioAssay (NCI)
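GI50 marks 50% less growth. TGI is the concentration that stops growth completely.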

Legend:
Assay in all cases: NCI anticancer screen, dose series, 384-well format; in the data active = GI50 below about 0.43 µM; inactive = the rest
SN12C renal = system: SN12C renal
U251 glioblastoma = system: U251 glioblastoma
SNB-19 CNS = system: SNB-19 CNS
HT29 colon = system: HT29 colon
SK-MEL-28 melanoma = system: SK-MEL-28 melanoma
MALME-3M melanoma = system: MALME-3M melanoma
NCI-H522 lung = system: NCI-H522 lung
OVCAR-5 ovarian = system: OVCAR-5 ovarian
786-0 renal = system: 786-0 renal
RPMI-8226 leukemia = system: RPMI-8226 leukemia
PC-3 prostate = system: PC-3 prostate
A498 renal = system: A498 renal
HOP-92 NSCLC = system: HOP-92 NSCLC
SK-MEL-2 melanoma = system: SK-MEL-2 melanoma
SNB-75 CNS = system: SNB-75 CNS
UACC-257 melanoma = system: UACC-257 melanoma
UO-31 renal = system: UO-31 renal
LOX IMVI melanoma = system: LOX IMVI melanoma
DU-145 prostate = system: DU-145 prostate
NCI-H23 lung = system: NCI-H23 lung
OVCAR-4 ovarian = system: OVCAR-4 ovarian
HL-60(TB) leukemia = system: HL-60(TB) leukemia
SF-539 CNS = system: SF-539 CNS
HCT-116 colon = system: HCT-116 colon
SF-295 CNS = system: SF-295 CNS
OVCAR-3 ovarian = system: OVCAR-3 ovarian
CCRF-CEM leukemia = system: CCRF-CEM leukemia
NCI-H226 lung = system: NCI-H226 lung

CC(C)Cn1cnc2c(N)nc3ccccc3c21
inactive: GI50 (SN12C renal) > 100 µM | GI50 (U251 glioblastoma) > 100 µM | GI50 (SNB-19 CNS) > 100 µM | GI50 (HT29 colon) > 100 µM | GI50 (SK-MEL-28 melanoma) > 100 µM | GI50 (MALME-3M melanoma) > 100 µM | GI50 (NCI-H522 lung) > 100 µM | GI50 (OVCAR-5 ovarian) > 100 µM | GI50 (786-0 renal) > 100 µM | GI50 (RPMI-8226 leukemia) > 100 µM | GI50 (PC-3 prostate) > 100 µM | GI50 (A498 renal) > 100 µM | GI50 (HOP-92 NSCLC) > 100 µM | GI50 (SK-MEL-2 melanoma) > 100 µM | GI50 (SNB-75 CNS) > 100 µM | GI50 (UACC-257 melanoma) > 100 µM | GI50 (UO-31 renal) > 100 µM | GI50 (LOX IMVI melanoma) > 100 µM | GI50 (DU-145 prostate) > 100 µM | GI50 (NCI-H23 lung) > 100 µM | GI50 (OVCAR-4 ovarian) > 100 µM | GI50 (HL-60(TB) leukemia) > 100 µM | GI50 (SF-539 CNS) > 100 µM | GI50 (HCT-116 colon) > 100 µM | GI50 (SF-295 CNS) > 100 µM | GI50 (OVCAR-3 ovarian) > 100 µM | GI50 (CCRF-CEM leukemia) > 100 µM | GI50 (NCI-H226 lung) > 100 µM
> 100 µM: TGI (SN12C renal) | TGI (U251 glioblastoma) | TGI (SNB-19 CNS) | TGI (HT29 colon) | TGI (SK-MEL-28 melanoma) | TGI (MALME-3M melanoma) | TGI (NCI-H522 lung) | TGI (OVCAR-5 ovarian) | TGI (786-0 renal) | TGI (RPMI-8226 leukemia) | TGI (PC-3 prostate) | TGI (A498 renal) | TGI (HOP-92 NSCLC) | TGI (SK-MEL-2 melanoma) | TGI (SNB-75 CNS) | TGI (UACC-257 melanoma) | TGI (UO-31 renal) | TGI (LOX IMVI melanoma) | TGI (DU-145 prostate) | TGI (NCI-H23 lung) | TGI (OVCAR-4 ovarian) | TGI (HL-60(TB) leukemia) | TGI (SF-539 CNS) | TGI (HCT-116 colon) | TGI (SF-295 CNS) | TGI (OVCAR-3 ovarian) | TGI (CCRF-CEM leukemia)
